Converted amounts (≈) assume the structure as drawn. Read-outs that look alike come from different tables or passages of the source.
Columns and labels:
Format in all cases: physicochemical
[1] = Equilibrium solubility determined by UPLC
[2] = In vitro 2-phase (SGF/FaSSIF) miniaturized dissolution of solid dispersion films; conditions: SGF-FaSSIF, 37° C.
Procedure: In vitro, 2-phase (SGF/FaSSIF) miniaturized dissolution was performed, where the amount of dissolved API was monitored as a function of time. Before starting the dissolution assay, the films were stored at room temperature, for one day for the first screen and for 3 days for the second screen. By doing so, most of the residual solvent was evaporated. Actual dissolution experiments were performed in 96 1 mL glass vials using the Hamilton STAR plus liquid handling platform for both sampling and sample preparation. Before addition to the films, the media was preheated to 37° C. 300 μL of preheated SGF (37° C., pH 1.3) was then added to the solid dispersions. After 15 minutes of incubation in SGF, 600 μL of preheated concentrated FaSSIF (37° C., pH 10.5) was added to the samples. The addition of this concentrated FaSSIF to SGF results in a medium with a similar composition to the typical FaSSIF medium used in 1-phase dissolution studies. At predetermined time intervals (11, 24, 34, 49, 79, 139 minutes), aliquots were withdrawn from the dissolution media and filtered through a 0.45 μm GHP membrane filter. Subsequently, the filtered solutions were quantitatively diluted with N-methyl pyrrolidone (NMP) to prevent possible precipitation. The amount of dissolved API was determined by UPLC/UV-Vis analysis. Experiments were performed in duplicate for each formulation per screen. […]

[3] = Stability of API, SD2 powder and 10 mg SD2 tablets in HDPE bottles; design: key to Appearance: “T1”: white powder; “T2”: white or off white round tablet; conditions: Table 8
Procedure: Stability of the API, SD2 as well as the tablet (10 mg strength) comprising SD2 was tested by placing the tablets in HDPE bottles under stressed conditions as described in column 2 of Table 7.

[4] = Approximate solubility screening in organic solvents at ambient temperature; conditions: organic solvent or mixture, thermodynamic from solid, read-out: S (solubility)
Description: To screen appropriate solvent for spray drying, approximate solubility of starting material was estimated in different organic solvents at ambient temperature.

[5] = Stability of API, SD1 powder and 10 mg SD1 tablets in HDPE bottles; design: key to Appearance: “T1”: white powder; “T2”: white or off white round tablet; conditions: Table 6
Procedure: Stability of the API, SD1 powder as well as the tablets (10 mg strength) comprising SD1 was tested by placing the tablets in High-density polyethylene (HDPE) bottles under stressed conditions as described in column 2 of Table 6.

COc1cc(NC(C(=O)c2c[nH]c3ccc(OC(F)(F)F)cc23)c2ccc(Cl)cc2OC)cc(S(C)(=O)=O)c1 (centres unmarked) [API]
solubility thermodynamic ([1]; MeOH/dichloromethane (1/1, organic solvent or mixture, thermodynamic from solid), MeOH/dichloromethane (DCM) (1/1, v/v)): 317 mg/mL (≈ 544 mM) | solubility thermodynamic ([1]; organic solvent or mixture, thermodynamic from solid, MeOH): 42 mg/mL (≈ 72 mM) | final release of the total amount of API present in the films ([2]; first screen): approximately 9% | final release of the total amount of API present in the films ([2]; second screen): approximately 9% | Appearance ([3]; 40° C./75% RH (closed), 1 M): T1 | Purity (%) ([3]; 40° C./75% RH (closed), 1 M): 98.96% | Total impurity (%) ([3]; 40° C./75% RH (closed), 1 M): 1.04% | Appearance ([3]; 40° C./75% RH (closed), 2 M): T1 | Purity (%) ([3]; 40° C./75% RH (closed), 2 M): 98.94% | Total impurity (%) ([3]; 40° C./75% RH (closed), 2 M): 1.05% | Appearance ([3]; 40° C./75% RH (closed), 2 W): T1 | Purity (%) ([3]; 40° C./75% RH (closed), 2 W): 98.95% | Total impurity (%) ([3]; 40° C./75% RH (closed), 2 W): 1.05% | Appearance ([3]; 40° C./75% RH (closed), 3 M): T1 | Purity (%) ([3]; 40° C./75% RH (closed), 3 M): 98.95% | Total impurity (%) ([3]; 40° C./75% RH (closed), 3 M): 1.05% | Appearance ([3]; 40° C./75% RH (open), 1 M): T1 | Purity (%) ([3]; 40° C./75% RH (open), 1 M): 98.94% | Total impurity (%) ([3]; 40° C./75% RH (open), 1 M): 1.04% | Appearance ([3]; 40° C./75% RH (open), 2 M): T1 | Purity (%) ([3]; 40° C./75% RH (open), 2 M): 98.96% | Total impurity (%) ([3]; 40° C./75% RH (open), 2 M): 1.04% | Appearance ([3]; 40° C./75% RH (open), 2 W): T1 | Purity (%) ([3]; 40° C./75% RH (open), 2 W): 98.95% | Total impurity (%) ([3]; 40° C./75% RH (open), 2 W): 1.06% | Appearance ([3]; 40° C./75% RH (open), 3 M): T1 | Purity (%) ([3]; 40° C./75% RH (open), 3 M): 98.96% | Total impurity (%) ([3]; 40° C./75% RH (open), 3 M): 1.05% | solubility ([4]; Acetone/EtOH (1/1, v/v)): > 100 mg/mL | solubility ([4]; Acetone/EtOH (2/1, v/v)): > 100 mg/mL | solubility ([4]; Acetone/H2O (9/1, v/v)): > 100 mg/mL | solubility ([4]; Acetone/MeOH (2/1, v/v)): > 100 mg/mL | solubility ([4]; EtOH/H2O (9/1, v/v), HPMC E5 added into co-solvent system directly): 10 to 12.5 mg/mL (≈ 17.2 to 21.4 mM) | solubility ([4]; MeOH): 42 mg/mL (≈ 72 mM) | solubility ([4]; MeOH/DCM (1/1, v/v)): > 100 mg/mL | Appearance ([5]; 40° C./75% RH (closed), 1 M): T1 | Purity (%) ([5]; 40° C./75% RH (closed), 1 M): 98.96% | Total impurity (%) ([5]; 40° C./75% RH (closed), 1 M): 1.04% | Appearance ([5]; 40° C./75% RH (closed), 2 M): T1 | Purity (%) ([5]; 40° C./75% RH (closed), 2 M): 98.94% | Total impurity (%) ([5]; 40° C./75% RH (closed), 2 M): 1.06% | Appearance ([5]; 40° C./75% RH (closed), 2 W): T1 | Purity (%) ([5]; 40° C./75% RH (closed), 2 W): 98.95% | Total impurity (%) ([5]; 40° C./75% RH (closed), 2 W): 1.05% | Appearance ([5]; 40° C./75% RH (closed), 3 M): T1 | Purity (%) ([5]; 40° C./75% RH (closed), 3 M): 98.95% | Total impurity (%) ([5]; 40° C./75% RH (closed), 3 M): 1.05% | Appearance ([5]; 40° C./75% RH (open), 1 M): T1 | Purity (%) ([5]; 40° C./75% RH (open), 1 M): 98.94% | Total impurity (%) ([5]; 40° C./75% RH (open), 1 M): 1.06% | Appearance ([5]; 40° C./75% RH (open), 2 M): T1 | Purity (%) ([5]; 40° C./75% RH (open), 2 M): 98.96% | Total impurity (%) ([5]; 40° C./75% RH (open), 2 M): 1.04% | Appearance ([5]; 40° C./75% RH (open), 2 W): T1 | Purity (%) ([5]; 40° C./75% RH (open), 2 W): 98.95% | Total impurity (%) ([5]; 40° C./75% RH (open), 2 W): 1.05% | Appearance ([5]; 40° C./75% RH (open), 3 M): T1 | Purity (%) ([5]; 40° C./75% RH (open), 3 M): 98.96% | Total impurity (%) ([5]; 40° C./75% RH (open), 3 M): 1.04%

Source: US20240000749A1, “SOLID FORMULATION” (Janssen Pharmaceuticals, Inc., priority 2020, published 2024)
